One test deals with human CB2 receptors (Homo sapiens (Human), UniProt P34972). Nature of the test: functional cAMP assay, CHO cells expressing human CB2. The class given is cell-based. The note with it: read-out: Human CB2 EC50. An outline of the steps: (§1)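 CHO-hCB1/hCB2 cells, KRB + 1 mM IBMX preincubation 30 min 30 °C; cpd 30 min 30 °C; lysis + TR-FRET cAMP detection, 2 h RT; cAMP from std curve; EC50.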

The target of a further test is human CB1 receptors (Homo sapiens (Human), UniProt P21554). Nature of the test: functional cAMP assay, CHO cells expressing human CB1. The class given is cell-based. The note with it: functional cAMP assay, CHO cells expressing human CB1; read-out: Human CB1 EC50. An outline of the steps: as §1
Chain of human CB1 receptors (P21554 whole entry): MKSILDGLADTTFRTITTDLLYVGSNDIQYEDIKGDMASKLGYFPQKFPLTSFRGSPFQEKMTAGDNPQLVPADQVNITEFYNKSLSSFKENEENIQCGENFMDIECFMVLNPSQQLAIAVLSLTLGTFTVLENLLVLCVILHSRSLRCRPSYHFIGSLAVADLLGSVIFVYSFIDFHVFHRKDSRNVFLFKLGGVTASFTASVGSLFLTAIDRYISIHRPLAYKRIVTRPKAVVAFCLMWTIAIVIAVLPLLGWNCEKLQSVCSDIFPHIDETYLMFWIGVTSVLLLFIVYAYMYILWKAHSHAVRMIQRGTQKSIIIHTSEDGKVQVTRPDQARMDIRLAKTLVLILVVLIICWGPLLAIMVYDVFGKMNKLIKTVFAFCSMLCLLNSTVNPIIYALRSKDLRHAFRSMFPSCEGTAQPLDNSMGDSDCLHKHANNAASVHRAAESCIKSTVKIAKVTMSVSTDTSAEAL

Chain of human CB2 receptors (P34972 whole entry): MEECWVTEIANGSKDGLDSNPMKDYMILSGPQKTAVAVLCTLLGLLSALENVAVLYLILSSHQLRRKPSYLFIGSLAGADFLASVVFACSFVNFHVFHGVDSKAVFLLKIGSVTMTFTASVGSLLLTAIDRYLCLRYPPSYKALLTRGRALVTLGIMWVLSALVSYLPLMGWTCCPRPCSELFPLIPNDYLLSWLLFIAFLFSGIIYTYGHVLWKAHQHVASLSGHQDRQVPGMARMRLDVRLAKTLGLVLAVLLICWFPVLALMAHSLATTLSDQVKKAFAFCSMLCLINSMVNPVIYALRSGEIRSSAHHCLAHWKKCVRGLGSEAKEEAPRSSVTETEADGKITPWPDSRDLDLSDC

Consider `O=C(NCC1(CO)CCCC1)c1cc(OCC2CC2)c(Cl)cn1` [Example 20, 5-Chloro-4-cyclopropylmethoxy-pyridine-2-carboxylic acid (1-hydroxymethyl-cyclopentylmethyl)-amide], for which the EC50 at human CB2 receptors is 23.2 nM; on human CB1 receptors it was more than 10000 nM.

Turning to `CCC(CC)(CO)NC(=O)c1cc(OCC2CC2)c(Cl)cn1` [Example 21, 5-Chloro-4-cyclopropylmethoxy-pyridine-2-carboxylic acid (1-ethyl-1-hydroxymethyl-propyl)-amide], the results for the EC50 on human CB2 receptors and on human CB1 receptors were 40.4 nM and more than 10000 nM, respectively.

Take `O=C(N[C@@H](c1cccnc1)C(F)(F)F)c1cc(OCC2CC2)c(Cl)cn1` [Example 22, 5-Chloro-4-cyclopropylmethoxy-pyridine-2-carboxylic acid ((S)-2,2,2-trifluoro-1-pyridin-3-yl-ethyl)-amide]: the concentration giving a half-maximal response (EC50) at human CB2 receptors was 5.7 nM; on human CB1 receptors, more than 10000 nM.

As for `CNC(=O)[C@@H](NC(=O)c1cc(OC2COC2)c(Cl)cn1)C(C)(C)C` [Example 23, 5-Chloro-4-(oxetan-3-yloxy)-pyridine-2-carboxylic acid ((S)-2,2-dimethyl-1-methylcarbamoyl-propyl)-amide], the concentration giving a half-maximal response (EC50) is 204 nM at human CB2 receptors and more than 10000 nM at human CB1 receptors.

Take `CNC(=O)[C@@H](NC(=O)c1cc(OCC(F)(F)F)c(Cl)cn1)C(C)(C)C` [Example 24, 5-Chloro-4-(2,2,2-trifluoro-ethoxy)-pyridine-2-carboxylic acid ((S)-2,2-dimethyl-1-methylcarbamoyl-propyl)-amide]: the EC50 was 9.8 nM on human CB2 receptors and more than 10000 nM at human CB1 receptors.

Regarding `CC(C)CC(C)(CO)NC(=O)c1cc(OCC2CC2)c(Cl)cn1` (stereo not drawn) [Example 25, 5-Chloro-4-cyclopropylmethoxy-pyridine-2-carboxylic acid (1-hydroxymethyl-1,3-dimethyl-butyl)-amide], the results for the EC50 on human CB2 receptors and on human CB1 receptors were 11.9 nM and more than 10000 nM, respectively.

`CCC(C)(CO)NC(=O)c1cc(OCC2CC2)c(Cl)cn1` (stereo not drawn) [Example 26, 5-Chloro-4-cyclopropylmethoxy-pyridine-2-carboxylic acid (1-hydroxymethyl-1-methyl-propyl)-amide]: the EC50 was 47.6 nM at human CB2 receptors and more than 10000 nM at human CB1 receptors.

Turning to `CC(C)C[C@@](C)(CO)NC(=O)c1cc(OCC2CC2)c(Cl)cn1` [Example 27, (−)-5-Chloro-4-cyclopropylmethoxy-pyridine-2-carboxylic acid (1-hydroxymethyl-1,3-dimethyl-butyl)-amide], the EC50 was 22.4 nM at human CB2 receptors and more than 10000 nM at human CB1 receptors.

Consider `CC(C)C[C@](C)(CO)NC(=O)c1cc(OCC2CC2)c(Cl)cn1` [Example 28, (+)-5-Chloro-4-cyclopropylmethoxy-pyridine-2-carboxylic acid (1-hydroxymethyl-1,3-dimethyl-butyl)-amide], for which the values for the EC50 at human CB2 receptors and at human CB1 receptors were 26.3 nM and more than 10000 nM, respectively.

Consider `CC(C)(C)[C@H](CO)NC(=O)c1cc(OCC2CC2)c(Cl)cn1` [Example 29, 5-Chloro-4-cyclopropylmethoxy-pyridine-2-carboxylic acid ((R)-1-hydroxymethyl-2,2-dimethyl-propyl)-amide], for which the EC50 at human CB2 receptors is 64.6 nM; at human CB1 receptors it was more than 10000 nM.

`CC[C@](C)(CO)NC(=O)c1cc(OCC2CC2)c(Cl)cn1` [Example 30, (−)-5-Chloro-4-cyclopropylmethoxy-pyridine-2-carboxylic acid (1-hydroxymethyl-1-methyl-propyl)-amide]: the 50% effective concentration (EC50) at human CB2 receptors is 19.2 nM; on human CB1 receptors it was more than 10000 nM.

Turning to `COC(=O)C(C)C(C)(C)NC(=O)c1cc(OCC2CC2)c(Cl)cn1` (stereo not drawn) [Example 31, Methyl 3-({[5-chloro-4-(cyclopropylmethoxy)pyridin-2-yl]carbonyl}amino)-2,3-dimethylbutanoate], the results for the concentration giving a half-maximal response (EC50) at human CB2 receptors and on human CB1 receptors were 9.5 nM and more than 10000 nM, respectively.

With `O=C(NC1(c2nccs2)COC1)c1cc(OCC2CC2)c(Cl)cn1` [Example 32, 5-Chloro-4-cyclopropylmethoxy-pyridine-2-carboxylic acid (3-thiazol-2-yl-oxetan-3-yl)-amide], the EC50 at human CB2 receptors was 74.6 nM; at human CB1 receptors, more than 10000 nM.

`CCCC(C)(CO)NC(=O)c1cc(OCC2CC2)c(Cl)cn1` (stereo not drawn) [Example 33, 5-Chloro-4-cyclopropylmethoxy-pyridine-2-carboxylic acid (1-hydroxymethyl-1-methyl-butyl)-amide]: the 50% effective concentration (EC50) at human CB2 receptors was 24.4 nM; at human CB1 receptors, more than 10000 nM.

For the compound `CNC(=O)[C@@H](C)C(C)(C)NC(=O)c1cc(OCC2CC2)c(Cl)cn1` [Example 34, (−)-5-Chloro-4-cyclopropylmethoxy-pyridine-2-carboxylic acid (1,1-dimethyl-2-methylcarbamoyl-propyl)-amide], the EC50 was 268 nM on human CB2 receptors and more than 10000 nM at human CB1 receptors.

Regarding `CNC(=O)[C@H](C)C(C)(C)NC(=O)c1cc(OCC2CC2)c(Cl)cn1` [Example 35, (+)-5-Chloro-4-cyclopropylmethoxy-pyridine-2-carboxylic acid (1,1-dimethyl-2-methylcarbamoyl-propyl)-amide], the values for the EC50 at human CB2 receptors and at human CB1 receptors were 143 nM and more than 10000 nM, respectively.

As to `O=C(NC1(c2ncco2)COC1)c1cc(OCC2CC2)c(Cl)cn1` [Example 36, 5-Chloro-4-cyclopropylmethoxy-pyridine-2-carboxylic acid (3-oxazol-2-yl-oxetan-3-yl)-amide], the figures for the EC50 at human CB2 receptors and on human CB1 receptors were 51.7 nM and more than 10000 nM, respectively.

In the case of `CCC[C@@](C)(CO)NC(=O)c1cc(OCC2CC2)c(Cl)cn1` [Example 37, (−)-5-Chloro-4-cyclopropylmethoxy-pyridine-2-carboxylic acid (1-hydroxymethyl-1-methyl-butyl)-amide], the results for the EC50 on human CB2 receptors and on human CB1 receptors were 16.7 nM and more than 10000 nM, respectively.

As for `CC(C)(C)C(NC(=O)c1cc(OCC(F)(F)F)c(Cl)cn1)c1nccs1` (stereo not drawn) [Example 38, 5-Chloro-4-(2,2,2-trifluoro-ethoxy)-pyridine-2-carboxylic acid (2,2-dimethyl-1-thiazol-2-yl-propyl)-amide], the EC50 was 40.8 nM at human CB2 receptors and more than 10000 nM at human CB1 receptors.

For the compound `CC(C)(C)C(NC(=O)c1cc(OC2COC2)c(Cl)cn1)c1nccs1` (stereo not drawn) [Example 39, 5-Chloro-4-(oxetan-3-yloxy)-pyridine-2-carboxylic acid (2,2-dimethyl-1-thiazol-2-yl-propyl)-amide], the 50% effective concentration (EC50) at human CB2 receptors is 128 nM; at human CB1 receptors, more than 10000 nM.

Turning to `O=C(N[C@@H](c1cccnc1)C(F)(F)F)c1cc(OCc2ccc(F)cc2)c(Cl)cn1` [Example 40, 5-Chloro-4-(4-fluoro-benzyloxy)-pyridine-2-carboxylic acid ((S)-2,2,2-trifluoro-1-pyridin-3-yl-ethyl)-amide], the half-maximal effective concentration (EC50) worked out at 5 nM at human CB2 receptors and 90.1 nM on human CB1 receptors.

With `O=C(N[C@@H](c1cccnc1)C(F)(F)F)c1cc(Cc2ccc(F)cc2)c(Cl)cn1` [Example 41, 5-Chloro-4-(4-fluoro-benzyl)-pyridine-2-carboxylic acid ((S)-2,2,2-trifluoro-1-pyridin-3-yl-ethyl)-amide], the values for the half-maximal effective concentration (EC50) at human CB2 receptors and at human CB1 receptors were 3.3 nM and 145 nM, respectively.

With `O=C(NC1(c2nccs2)COC1)c1cc(OCC2CC2)c(C2CC2)cn1` [Example 42, 5-Cyclopropyl-4-cyclopropylmethoxy-pyridine-2-carboxylic acid (3-thiazol-2-yl-oxetan-3-yl)-amide], the half-maximal effective concentration (EC50) was 11.6 nM on human CB2 receptors and more than 10000 nM at human CB1 receptors.

Turning to `CC(C)(C)C(NC(=O)c1cc(OCC2CC2)c(C2CC2)cn1)c1nccs1` (stereo not drawn) [Example 43, 5-Cyclopropyl-4-cyclopropylmethoxy-pyridine-2-carboxylic acid (2,2-dimethyl-1-thiazol-2-yl-propyl)-amide], the EC50 at human CB2 receptors is 3.2 nM; on human CB1 receptors, more than 10000 nM.

Regarding `Cc1nc(C(C)(NC(=O)c2cc(OCC3CC3)c(C3CC3)cn2)C2CC2)no1` (stereo not drawn) [Example 44, 5-Cyclopropyl-4-cyclopropylmethoxy-pyridine-2-carboxylic acid [1-cyclopropyl-1-(5-methyl-[1,2,4]oxadiazol-3-yl)-ethyl]-amide], the EC50 at human CB2 receptors was 0.7 nM; at human CB1 receptors, more than 10000 nM.

As to `CCC(CC)(NC(=O)c1cc(OCC2CC2)c(C2CC2)cn1)C(=O)NC` [Example 45, 5-Cyclopropyl-4-cyclopropylmethoxy-pyridine-2-carboxylic acid (1-ethyl-1-methylcarbamoyl-propyl)-amide], the half-maximal effective concentration (EC50) at human CB2 receptors was 17 nM; at human CB1 receptors, more than 10000 nM.

For `O=C(NC(c1ccccn1)C(F)(F)F)c1cc(OCC2CC2)c(C2CC2)cn1` (stereo not drawn) [Example 46, 5-Cyclopropyl-4-cyclopropylmethoxy-pyridine-2-carboxylic acid (2,2,2-trifluoro-1-pyridin-2-yl-ethyl)-amide], the concentration for a half-maximal effect (EC50) was 6.7 nM on human CB2 receptors and more than 10000 nM at human CB1 receptors.

For `CC(C)C[C@H](NC(=O)c1cc(OCC2CC2)c(C2CC2)cn1)C(N)=O` [Example 47, 5-Cyclopropyl-4-cyclopropylmethoxy-pyridine-2-carboxylic acid ((S)-1-carbamoyl-3-methyl-butyl)-amide], the 50% effective concentration (EC50) at human CB2 receptors is 11.8 nM; on human CB1 receptors, more than 10000 nM.

On to `CNC(=O)[C@@H](NC(=O)c1cc(OCC(F)(F)F)c(C2CC2)cn1)C(C)(C)C` [Example 48, 5-Cyclopropyl-4-(2,2,2-trifluoro-ethoxy)-pyridine-2-carboxylic acid ((S)-2,2-dimethyl-1-methylcarbamoyl-propyl)-amide], for which the figures for the concentration for a half-maximal effect (EC50) at human CB2 receptors and on human CB1 receptors were 1.57 nM and 661 nM, respectively.

As to `Cc1nc(C(C)(NC(=O)c2cc(OCC(F)(F)F)c(C3CC3)cn2)C2CC2)no1` (stereo not drawn) [Example 49, 5-Cyclopropyl-4-(2,2,2-trifluoro-ethoxy)-pyridine-2-carboxylic acid [1-cyclopropyl-1-(5-methyl-[1,2,4]oxadiazol-3-yl)-ethyl]-amide], the EC50 at human CB2 receptors was 1.7 nM; at human CB1 receptors, more than 10000 nM.

(Values after patent US9409866B2, “Pyridine-2-amides useful as CB2 agonists” (Hoffmann-La Roche Inc., priority 2012, dated 2016).)
